From patent US20070243154A1, “Solubilization of acid ingredients” (L'OREAL, priority 2006, published 2007)

Legend:
[1] = Solubility of salicylic acid in organic compounds liquid at room temperature; type: physicochemical; details: dissolved at 60° C., cooled to room temperature, left 2 hours
Procedure: In this example, the solubility of salicylic acid in different liquid materials was compared with mineral oil.
Preparation of Highly Concentrated Salicylic Acid Solutions
Salicylic acid was mixed with various organic compounds, liquid at room temperature, and heated to 60° C. The solution was stirred until all the salicylic acid was dissolved and then cooled to room temperature with stirring. The solution was left undisturbed for 2 hours and observed for crystallization.
The results are expressed by weight of the acid in the dissolving organic compound liquid at room temperature.

[2] = cited from earlier work

- solubility of salicylic acid ([1]; in C12-C15 alkyl benzoate): 4.8% w/w
- solubility of salicylic acid ([1]; in glyceryl isostearate): 8.25% w/w
- solubility of salicylic acid ([1]; in isostearic acid): 6.5% w/w
- solubility of salicylic acid ([1]; in isostearyl alcohol): 9.9% w/w
- solubility of salicylic acid ([1]; in oleic acid, observed for crystallization, by weight of acid in the solvent): 5.6% w/w
- solubility of salicylic acid ([1]; in propylene glycol isostearate): 9.9% w/w
Compound: O=C(O)c1ccccc1O [Salicylic acid, 2-hydroxybenzoic acid]
- volume of alcohol in which 1 g dissolves ([2]; ethanol, 1 g dissolves in the stated volume): 2.7 mL
- volume of ether in which 1 g dissolves ([2]; ether, 1 g in the stated volume): 3 mL
- volume of water in which 1 g dissolves ([2]; water, 1 g in the stated volume): 460 mL
